{"source": "patent EP4624482A1", "about": "“PYRIMIDOPYRIMIDINONE COMPOUND AND PHARMACEUTICAL COMPOSITION COMPRISING SAME” (Axceso Biopharma Co., Ltd., priority 2022, dated 2024)", "key": {"[1]": {"test_system": "amyloid beta monomer (monomeric Aβ, mAβ)", "assay": "mAβ expression in mouse brain of AD-induced animal model, fluorescence microscopy", "format": "in vivo, mice", "conditions": "1 mg/kg intraperitoneally once every 3 days for 2 weeks; brain sections at 1 week and 4 weeks after drug administration", "description": "To determine the therapeutic effect on Alzheimer's Disease (AD), the effects on amyloid beta monomer (monomeric Aβ, mAβ) and Tau protein, which are biomarkers of AD, were analyzed in an AD-induced animal model.\nAPP/PS/Tau transgenic mice were used as an AD-induced animal model. The compound of formula (1a-1) was administered intraperitoneally once every 3 days at a concentration of 1 mg/kg to 12-week-old transgenic mice for 2 weeks, and the expression of mAβ and Tau proteins in the mouse brain was measured after 1 and 4 weeks. After anesthetizing the mouse, the cervical region was incised with a dissecting tool, and then the occipital region was incised to remove both sides of the skull. The brain was washed with phosphate buffered saline (PBS) and fixed with 4% paraformaldehyde (Sigma, St Louis, MO, USA) for 12 hours at 4°C. These were cut to a thickness of approximately 10 µm using a vibratome, and hippocampus and cortex sections were collected and placed in 24 wells. PBS was added to the wells containing the fixed tissue sections, and fluorescent nanoparticles (QD565, red fluorescence) conjugated with anti-amyloid antibodies and anti-Tau antibodies (Santa Cruz, USA) were added to each 2 µM, and reacted at 4°C for 12 hours. The expression of mAβ and Tau was confirmed by fluorescence microscopy."}, "[2]": {"test_system": "tyrosine hydroxylase (TH)", "assay": "Differentiation of pluripotent stem cells into dopaminergic neurons: TH expression", "format": "cell-based", "description": "Pluripotent stem cells were seeded in AggreWell plates (stemcell) at 5,000 cells/microwell and cultured for 5 days in E6 medium (GIBCO) to induce embryonic body (EB) formation. For neural rosette formation, EBs were seeded into 35 mm dishes in groups of 30 and cultured for 10 days in N2bF medium. The 35 mm dishes were used after being coated with 15 µg/ml of poly-L-ornithine (sigma) and 1 µg/ml of fibronectin (sigma). The N2Bf medium composition was DMEM/F12 (GIBCO), N2 supplement (stemcell) 1×, 10% NEAA (GIBCO), 55 µM betaMercaptoethanol (GIBCO), bFGF (peprotech) 20 ng/ml. For the formation of spherical neural masses (SNMs), rosette masses were sliced and cultured in petri dishes with N2bF medium. SNMs were no larger than 500 µM in size and were sliced and cultured for 3 to 4 passages. After subculture of SNM, the clumps were broken into small pieces using a tungsten mesh (Nilaco) for the neural progenitor cell (NPC) culture step, and then attached to a PLO/FN-coated dish and cultured in N2bF medium. To differentiate NPCs into dopaminergic neurons, the medium was replaced with an ITS-B27 medium after 2 days of NPC culture. The ITS-B27 medium composition was DMEM/F12 (GIBCO), D-(+)-glucose (sigma) 1.5 mg/ml, insulin (wako) 5 µg/ml, transferrin (wako) 50 µg/ml, selenite (sigma) 30 nM, GlutaMAX (GIBCO) 2.5%, and B27 (GIBCO) 1×. After 4 days of NPC culture, 200 ng/ml of Sonic Hedgehog and 100 ng/ml of FGF8 (peprotech) were added to the ITS-B27 medium. After 6 days of NPC culture, 200 ng/ml of Sonic Hedgehog, 20 ng/ml of GDNF, 20 ng/ml of BDNF (peprotech), 200 µM of ascorbic acid, and 500 µM of cAMP (sigma) were added to the ITS-B27 medium and cultured for approximately 5 weeks. The compound of formula (1a-1) was treated starting from the stage 2 days after NPC culture. […]\nThe effect of the compound of formula (1a-1) on differentiation into neurons was evaluated by comparing the expression of tyrosine hydroxylase (TH) and dopamine transporter (DAT) depending on the presence or absence of treatment with the compound of formula (1a-1)."}, "C57BL/6 mice [3]": {"test_system": "C57BL/6 mice", "assay": "In vivo permeability of mouse organs after CLP, Evans blue dye", "conditions": "treated at 6 and 16 hours after CLP, Evans blue dye at 18 hours", "description": "Permeability was measured by an in vitro method using cell culture and in vivo method using Evans blue dye. To increase permeability, LPS was used in the in vitro method and CLP treatment was used in the in vivo method.\nTo measure permeability by an in vivo method, the compound of formula (1a-1) was treated at 6 and 16 hours after CLP treatment in the same manner as in Experimental Example 7 above, and 200 µl of a 0.5% Evans blue dye (EBD) solution was administered intravenously at 18 hours, circulated for 1 hour, and organs were harvested to visually confirm the presence of dye. The organs were then homogenized in a homogenizer to extract the dye at 55 °C for 48 hours, and permeability was determined by measuring absorbance at 620 nm."}, "C57BL/6 mice [4]": {"test_system": "C57BL/6 mice", "assay": "Survival in sepsis induced by cecal ligation and puncture (CLP)", "format": "in vivo", "conditions": "100 ng/mouse (5 µg/kg) intravenously at 6 and 16 hours after CLP", "description": "C57BL/6 mice aged 7-8 weeks were purchased from Jabio (Suwon, Gyeonggi-do) and sepsis was induced by cecal ligation and puncture (CLP).\nSpecifically, after anesthesia using 150 mg/kg of ketamine and 17.5 mg/kg of rompun, an abdominal incision of 1-2 cm was made to expose the cecum to induce sepsis. The cecum was ligated with 6-0 silk sutures at the distal end of the ileocecal valve, and a puncture was made with an 18-gauge needle. The perforated cecum was gently squeezed to push out 1-2 cm of feces, and the cecum was then retracted back into the abdominal cavity. The abdomen was then closed and pre-warmed normal saline (2.5 mL/100 g body weight) was injected into the mouse abdominal cavity immediately after the procedure. 6 and 16 hours after CLP treatment, the compound of formula (1a-1) was dissolved in phosphate buffered saline (PBS) and injected intravenously at 100 ng/mouse (5 µg/kg), and survival was examined for 10 days. […] In addition, as a drug-negative control, survival was examined in mice that received only PBS after CLP treatment.\nFor comparison, we also examined the survival of a control group treated with fingolimod (FTY720), a known S1P modulator, instead of the compound of formula (1a-1) under the same conditions."}}, "data": [{"molecule": "CCCCCCCCCCCCCC[C@H]1OP(=O)(O)O[C@H]1[C@@H](N)CO.Cl", "note": "[formula (1a-1), (4S,5R)-4-((S)-1-amino-2-hydroxyethyl)-2-hydroxy-5-tetradecyl-1,3,2-dioxaphosphoran-2-oxide hydrochloride]", "values": [{"measurement": "red fluorescence for mAβ", "setting": "[1]", "value": "negligible"}, {"measurement": "TH expression at early time", "setting": "[2]; 3 weeks of treatment, normally increases after more than 5 weeks of differentiation", "value": "elevated"}, {"measurement": "expression of TH", "setting": "[2]; cell fluorescence immunostaining", "value": "increased"}, {"measurement": "TH expression", "setting": "[2]; western blot of 5-week differentiation sample", "value": "increased"}, {"measurement": "amount of EBD in each organ", "setting": "C57BL/6 mice [3]", "value": "returns to normal"}, {"measurement": "deaths after 10 days", "setting": "C57BL/6 mice [4]", "value": "no deaths"}, {"measurement": "survival", "setting": "C57BL/6 mice [4]; for 10 days", "value": "more than 80%"}]}]}
